In patent US20240059693A1, “FUSED BICYCLIC PYRAZOLE DERIVATIVES AND METHODS OF USE THEREOF FOR THE TREATMENT OF HERPESVIRUSES” (Merck Sharp & Dohme LLC, priority 2020, published 2024):
Where two headings read alike, the source gives them in different places.

How the values were obtained:
[1] = molecular target: T1, Human cytomegalovirus DNA polymerase (Human cytomegalovirus, UniProt P08546); test: HCMV polymerase assay (AlphaLISA); assay type: biochemical; conditions: HCMV DNA polymerase 0.2 nM, 60 minutes at 37° C.; read-out: CMV (IC50)
T1 construct: made in house; host or cells: SF21 insect cells (baculovirus vector)
How it was run: (§1)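 Baculovirus/SF21-expressed polymerase (HCMV 0.2 nM; VZV 0.4 nM) pre-incubated 30 min at room temperature with compound in HEPES pH 7.5 buffer, then 60 min at 37 °C with 1.6 nM DIG-primer/template, sub-nM to 24 nM dNTPs and 0.8 nM biotin-dUTP. AlphaLISA detection; IC50 from 4-parameter fit.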

[2] = molecular target: T2, varicella zoster virus DNA polymerase (Varicella-zoster virus, UniProt P09252); test: VZV polymerase assay (AlphaLISA); assay type: biochemical; conditions: VZV DNA polymerase 0.4 nM, 60 minutes at 37° C.
T2 construct: made in house; host or cells: SF21 insect cells (baculovirus vector)
How it was run: as §1

HCMV Strain AD169 = test: Viral qPCR assay, HCMV in MRC-5 cells; assay type: cell-based, Human cytomegalovirus; conditions: read-out: CMV MRC5 Cell (EC50)
How it was run: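 Viral genome copies, quantified by TaqMan qPCR with a plasmid standard curve after ~72 h infection of MRC-5 cells with AD169 at 0.05-0.1 pfu/cell, served as readout; PPIA normalisation used in one format. Compounds run as 10-point 3-fold series, in standard or 50% FBS media; EC50 by 4-parameter fit.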

VZV [3] = test: Viral qPCR assay, VZV in MeWo cells; assay type: cell-based, varicella zoster virus; conditions: read-out: VZV MEWO Cell (IC50)
Procedure: (§2) MRCS cells, Vero cells, and MeWo cells were obtained from ATCC and were maintained at 37° C./5% CO2/90% relative humidity in Minimal Essential Medium with 10% fetal bovine serum, […] L-glutamine, 100 units/ml penicillin and 100 ug/ml streptomycin. Assay plates were prepared by dispensing compounds dissolved in DMSO into wells of 384 well collagen-coated plates using an ECHO acoustic dispenser. Each compound was tested in a 10-point, serial 3-fold dilution. Controls included uninfected cells and infected cells treated only with DMSO. Assays were initiated by mixing selected cells, in suspension, with virus, and dispensing 50 μl/well infected cells to pre-plated compounds. Plates were incubated at 37° C./5% CO2/90% relative humidity for ˜72 hrs to permit genomic replication, and infected cells were lysed by the addition of an equal volume of lysis buffer (10 mM Tris-HCl, pH8, 50 mM KCl, 2 mM MgCl2, 0.45% NP-40, 0.45% Tween-20, and 100 μg/ml proteinase K). An aliquot of the lysate was transferred to a 384-well PCR plate and incubated at 56° C. for 1 hour and then at 95° C. for 10 min. Levels of a viral gene and of the cellular control, PPIA (Thermo Fisher Assay ID=Hs04194521_s1), were measured in separate 10 μL qPCR assays using TaqMan® Gene Expression Master Mix (Applied Biosystems), and an 7900HT Fast Real-Time PCR System with 384-Well Block Module. 7-point, serial 10-fold dilutions of a plasmid standard were run on each plate to generate a standard curve, and genome copies numbers were calculated by plotting experimental Ct onto linear regression of the standard curve. Viral genome copy numbers were normalized by cellular control copy number, and compound effects were normalized to the window defined by the controls. Calculated % effects were fit using a 4-parameter algorithm, and EC50 was reported.
as §2, with “gene” for “gene and of the cellular control, PPIA (Thermo Fisher Assay ID=Hs04194521_s1),”, “in” for “in separate”, “Compound effects on viral” for “Viral”, “number” for “numbers were normalized by cellular control copy number, and compound effects”
VZV: Strain Street was maintained as an infected cell stock in MRC-5 cells. It was assayed in MeWo or MRCS cells and was used at 0.04-0.1 pfu/cell. The assays were performed in growth medium. Primer-probe set was Thermo Fisher Assay ID=AIPAEXQ. HSV-1: Strain F Street was assayed in Vero or MRCS cells and was used at 0.0005-0.004 pfu/cell in growth medium. Primer-probe set was Thermo Fisher Assay ID=AIBJZIB

VZV [4] = test: Viral qPCR assay, VZV in MRC5 cells; assay type: cell-based, varicella zoster virus; conditions: read-out: VZV MRC5 Cell (IC50)
How it was run: (§3)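 EC50 from a 4-parameter fit of viral genome copies, quantified by TaqMan qPCR on proteinase K lysates against a plasmid standard, with or without PPIA normalization. Infected cells (VZV 0.04-0.1 pfu/cell in MeWo/MRC5; HSV-1 0.0005-0.004 pfu/cell in Vero/MRC5) were exposed to 10-point 3-fold dilutions for ~72 h at 37 °C.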

HSV-1 Strain F [5] = test: Viral qPCR assay, HSV-1 in Vero cells; assay type: cell-based, Herpes Simplex Virus type 1; conditions: read-out: HSV1 VERO Cell (EC50)
How it was run: as §3

HSV-1 Strain F [6] = test: Viral qPCR assay, HSV-1 in MRC5 cells; assay type: cell-based, Herpes Simplex Virus type 1; conditions: read-out: HSV1 MRC5 Cell (EC50)
How it was run: as §3

HSV2 [7] = test: Viral qPCR assay, HSV2 in Vero cells; assay type: cell-based, Herpes Simplex Virus type 2; conditions: read-out: HSV2 VERO Cell (EC50)
How it was run: (§4)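 EC50 from a 4-parameter fit of % effect on HSV2 genome copies, quantified by qPCR from a plasmid standard curve and normalized to infected DMSO and uninfected controls, with PPIA correction in one version. Virus-mixed Vero or MRC5 cells met 10-point 3-fold serial compound dilutions for ~72 h at 37 °C.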

HSV2 [8] = test: Viral qPCR assay, HSV2 in MRC5 cells; assay type: cell-based, Herpes Simplex Virus type 2; conditions: read-out: HSV2 MRC5 Cell (EC50)
How it was run: as §4

[9] = Human betaherpesvirus 5, AD169, MRC5, 72 h
[10] = Human alphaherpesvirus 3, ~72 hrs
[11] = Human alphaherpesvirus 3, MRC5, 72 h
[12] = Human alphaherpesvirus 1, Vero, 72 h
[13] = Human alphaherpesvirus 1, MRC5, 72 h
[14] = Human alphaherpesvirus 2, Vero, 72 h
[15] = Human alphaherpesvirus 2, MRC5, 72 h

T1 sequence (P08546 whole entry): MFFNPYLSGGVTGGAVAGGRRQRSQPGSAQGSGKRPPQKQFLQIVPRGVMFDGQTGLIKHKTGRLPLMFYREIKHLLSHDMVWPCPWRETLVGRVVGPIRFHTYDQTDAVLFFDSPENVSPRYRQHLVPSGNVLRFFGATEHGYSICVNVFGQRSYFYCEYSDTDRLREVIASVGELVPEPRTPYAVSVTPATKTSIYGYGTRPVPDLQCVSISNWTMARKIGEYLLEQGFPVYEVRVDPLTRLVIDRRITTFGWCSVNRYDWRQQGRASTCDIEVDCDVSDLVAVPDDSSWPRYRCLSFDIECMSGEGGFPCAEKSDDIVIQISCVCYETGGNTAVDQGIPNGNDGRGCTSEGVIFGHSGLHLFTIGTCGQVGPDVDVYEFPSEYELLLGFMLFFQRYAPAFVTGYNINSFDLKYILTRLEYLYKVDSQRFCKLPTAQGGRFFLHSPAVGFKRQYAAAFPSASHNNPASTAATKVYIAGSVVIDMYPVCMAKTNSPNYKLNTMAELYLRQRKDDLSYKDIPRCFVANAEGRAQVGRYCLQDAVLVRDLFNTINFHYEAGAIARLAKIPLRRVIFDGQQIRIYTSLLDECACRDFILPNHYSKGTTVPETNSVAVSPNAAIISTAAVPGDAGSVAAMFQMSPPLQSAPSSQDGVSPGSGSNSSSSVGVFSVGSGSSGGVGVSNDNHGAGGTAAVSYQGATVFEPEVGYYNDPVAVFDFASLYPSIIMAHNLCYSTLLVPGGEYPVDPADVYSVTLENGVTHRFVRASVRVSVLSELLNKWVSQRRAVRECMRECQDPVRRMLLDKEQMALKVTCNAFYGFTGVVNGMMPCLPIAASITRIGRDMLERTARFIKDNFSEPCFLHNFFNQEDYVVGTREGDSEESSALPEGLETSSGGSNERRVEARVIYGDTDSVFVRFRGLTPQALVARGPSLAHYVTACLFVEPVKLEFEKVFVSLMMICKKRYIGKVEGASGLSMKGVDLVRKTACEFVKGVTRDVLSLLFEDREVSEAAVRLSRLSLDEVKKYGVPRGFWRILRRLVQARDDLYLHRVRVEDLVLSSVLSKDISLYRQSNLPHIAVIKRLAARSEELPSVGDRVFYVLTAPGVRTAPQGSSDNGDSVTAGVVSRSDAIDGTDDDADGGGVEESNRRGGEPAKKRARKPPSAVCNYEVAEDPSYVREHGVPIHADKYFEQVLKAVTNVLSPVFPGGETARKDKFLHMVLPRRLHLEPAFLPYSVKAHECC
T2 sequence (P09252 whole entry): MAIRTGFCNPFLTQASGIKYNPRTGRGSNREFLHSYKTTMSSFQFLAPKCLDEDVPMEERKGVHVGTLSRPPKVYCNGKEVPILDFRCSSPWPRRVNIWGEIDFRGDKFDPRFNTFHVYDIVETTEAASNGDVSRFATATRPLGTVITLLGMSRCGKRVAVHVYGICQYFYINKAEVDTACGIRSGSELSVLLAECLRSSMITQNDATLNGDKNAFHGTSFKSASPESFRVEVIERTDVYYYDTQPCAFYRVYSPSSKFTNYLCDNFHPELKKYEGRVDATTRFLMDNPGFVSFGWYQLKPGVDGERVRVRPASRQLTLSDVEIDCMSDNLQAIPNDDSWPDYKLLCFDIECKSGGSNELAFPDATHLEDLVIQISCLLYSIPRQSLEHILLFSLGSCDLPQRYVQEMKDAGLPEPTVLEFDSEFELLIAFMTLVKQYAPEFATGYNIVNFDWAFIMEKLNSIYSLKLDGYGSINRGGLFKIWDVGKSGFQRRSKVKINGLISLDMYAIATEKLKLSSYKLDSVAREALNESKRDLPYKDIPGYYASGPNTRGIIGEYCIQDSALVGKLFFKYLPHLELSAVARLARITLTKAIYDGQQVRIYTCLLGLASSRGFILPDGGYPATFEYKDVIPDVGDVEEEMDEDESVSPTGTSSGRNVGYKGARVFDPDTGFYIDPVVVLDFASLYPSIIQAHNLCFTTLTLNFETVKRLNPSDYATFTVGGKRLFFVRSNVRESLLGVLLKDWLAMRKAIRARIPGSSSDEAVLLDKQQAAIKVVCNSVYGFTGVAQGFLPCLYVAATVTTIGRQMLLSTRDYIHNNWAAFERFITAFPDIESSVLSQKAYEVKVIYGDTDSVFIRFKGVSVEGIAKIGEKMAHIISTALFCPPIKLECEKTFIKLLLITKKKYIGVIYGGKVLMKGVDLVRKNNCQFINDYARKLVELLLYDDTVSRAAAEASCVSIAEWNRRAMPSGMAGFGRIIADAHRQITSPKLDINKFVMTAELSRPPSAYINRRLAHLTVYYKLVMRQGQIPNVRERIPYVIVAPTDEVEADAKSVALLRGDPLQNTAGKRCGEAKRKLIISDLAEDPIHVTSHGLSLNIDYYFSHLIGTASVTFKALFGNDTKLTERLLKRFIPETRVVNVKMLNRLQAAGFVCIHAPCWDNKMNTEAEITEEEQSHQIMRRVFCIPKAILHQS

| Compound | IC50 [1] [nM] | IC50 [2] [nM] | EC50 (HCMV Strain AD169; [9]) [nM] | IC50 (VZV [3]; [10]) [nM] | IC50 (VZV [4]; [11]) [nM] | EC50 (HSV-1 Strain F [5]; [12]) [nM] | EC50 (HSV-1 Strain F [6]; [13]) [nM] | EC50 (HSV2 [7]; [14]) [nM] | EC50 (HSV2 [8]; [15]) [nM] | EC50 (HCMV Strain AD169; MRC5 cells, ~72 hrs) [nM] | IC50 (VZV [3]; ~72 hrs) [nM] | IC50 (VZV [4]; ~72 hrs) [nM] | EC50 (HSV-1 Strain F [5]; ~72 hrs) [nM] | EC50 (HSV-1 Strain F [6]; ~72 hrs) [nM] | EC50 (HSV2 [7]; ~72 hrs) [nM] | EC50 (HSV2 [8]; ~72 hrs) [nM] |
| --- | --- | --- | --- | --- | --- | --- | --- | --- | --- | --- | --- | --- | --- | --- | --- | --- |
| Cn1nc(C(=O)NCc2ccc(Cl)c(F)c2)c2c1CN(C[C@H]1CCC(=O)N1)C2 [Compound 60] | 143 | 112 | 970 | 1470 | 5960 | 2850 | 8350 | 5460 | 5570 | – | – | – | – | – | – | – |
| Cn1nc(C(=O)NCc2ccc(Cl)cc2)c2c1CC(C[C@H]1CCC(=O)N1)C2 (single isomer, unassigned) [Compound 129] | 74.2 | 9.1 | – | – | – | – | – | – | – | 1570 | 154 | 371 | 264 | 1020 | 422 | 384 |
| Cn1nc(C(=O)NCc2ccc(Cl)cc2)c2c1CC(C[C@@H]1CCC(=O)N1)C2 (single isomer, unassigned) [Compound 127] | 48.9 | 9.72 | – | – | – | – | – | – | – | 599 | 130 | 407 | 240 | 694 | 364 | 278 |
| O=C1CC[C@H](CN2Cc3c(C(=O)NCc4ccc(Cl)cc4)nn(CCn4ccc(Cl)n4)c3C2)N1 [Compound 36] | 8.94 | 5.85 | 453 | 102 | 856 | 1190 | 1270 | 2840 | 960 | – | – | – | – | – | – | – |
